Blank lines part the entries; values can stand above or below the compound they belong to.
Experiments:
[1] = cited from earlier work
[2] = Concentration of meloxicam in plasma of dogs after single subcutaneous silica hydrogel depot; assay type: in vivo; conditions: dog, sc, 3.16 mg meloxicam/kg bodyweight, single s.c. silica hydrogel depot
Description: Example 1 relates to animal studies carried out. […] The appropriate dose of TI was administered subcutaneously as a one off dose at the area behind the shoulder blade.

[3] = Mouse study: body weight at necropsy; assay type: in vivo, mouse (BALB/cAnNCrl, male); conditions: SiO2 left flank, SiO2 with meloxicam right flank, s.c. 0.1 ml
Description: A mouse study was carried out using 15 animals from University of Turku, Central Animal Laboratory, Pharmacity breeding unity. All animals were BALB/cAnNCrl, male. The animals were acclimatised for 15 days. No period of isolation was needed. At the start of the study the animals were aged 10-13 weeks and weighed 28.9 g±1.38 g (min. 26.6 g, max 31.1 g).
Administration of the test items was carried out according to the study design set out in Table 3. The test item was administered by subcutaneous (back) injection using a syringe and an 18G needle at a dose volume of 0.1 ml/mouse.
Animals were weighed and euthanized (CO2) at the end of the experiment (Animals #1, 2, and 3 were not weighed). The injection sites were macroscopically observed and digital pictures from test items in soft tissue was taken at the each time point. The test item (gel) was removed from a soft tissue when possible.

[4] = dogs, single oral administration; cited from earlier work
[5] = Animal 4, necropsy 7 days after injections
[6] = Animal 7, necropsy 14 days after injections
[7] = Animal 10, necropsy 28 days after injections

Compound: CC(C(=O)O)c1ccc2c(c1)[nH]c1ccc(Cl)cc12 (centres unmarked) [carprofen]
Solubility in water [1]: practically insoluble in water

concentration at 0 hours ([2]; Dog 1, 0.0 hours): 0 ng/mL
concentration at 0.5 hours ([2]; Dog 1, 0.5 hours): 43.2 ng/mL
concentration at 1 hours ([2]; Dog 1, 1.0 hours): 132 ng/mL
concentration at 2 hours ([2]; Dog 1, 2.0 hours): 296 ng/mL
concentration at 3 hours ([2]; Dog 1, 3.0 hours): 379 ng/mL
concentration at 4 h ([2]; Dog 1, 4.0 hours): 402 ng/mL
concentration at 6 h ([2]; Dog 1, 6.0 hours): 375 ng/mL
concentration at 8 h ([2]; Dog 1, 8.0 hours): 294 ng/mL
concentration at 12 h ([2]; Dog 1, 12.0 hours): 363 ng/mL
concentration at 504 h ([2]; Dog 1, 504.0 hours): 4.3 ng/mL
concentration at 576 h ([2]; Dog 1, 576.0 hours): 2.6 ng/mL
concentration at 672 h ([2]; Dog 1, 672.0 hours): 1.5 ng/mL
concentration at 840 hours ([2]; Dog 1, 840.0 hours): 1 ng/mL
concentration at 1008 hours ([2]; Dog 1, 1008.0 hours): 0.9 ng/mL
concentration at 1176 hours ([2]; Dog 1, 1176.0 hours): 0.5 ng/mL
concentration at 1344 hours ([2]; Dog 1, 1344.0 hours): 0.4 ng/mL
concentration at 0 hours ([2]; Dog 2, 0.0 hours): 0 ng/mL
concentration at 0.5 hours ([2]; Dog 2, 0.5 hours): 27 ng/mL
concentration at 1 hours ([2]; Dog 2, 1.0 hours): 76 ng/mL
concentration at 2 hours ([2]; Dog 2, 2.0 hours): 153 ng/mL
concentration at 3 hours ([2]; Dog 2, 3.0 hours): 227 ng/mL
concentration at 4 h ([2]; Dog 2, 4.0 hours): 257 ng/mL
concentration at 6 h ([2]; Dog 2, 6.0 hours): 349 ng/mL
concentration at 8 h ([2]; Dog 2, 8.0 hours): 344 ng/mL
concentration at 12 h ([2]; Dog 2, 12.0 hours): 447 ng/mL
concentration at 504 h ([2]; Dog 2, 504.0 hours): 115 ng/mL
concentration at 576 h ([2]; Dog 2, 576.0 hours): 101 ng/mL
concentration at 672 hours ([2]; Dog 2, 672.0 hours): 67.3 ng/mL
concentration at 840 hours ([2]; Dog 2, 840.0 hours): 40.1 ng/mL
concentration at 1008 hours ([2]; Dog 2, 1008.0 hours): 17.9 ng/mL
concentration at 1176 hours ([2]; Dog 2, 1176.0 hours): 5.6 ng/mL
concentration at 1344 hours ([2]; Dog 2, 1344.0 hours): 2.6 ng/mL
concentration at 0 hours ([2]; Dog 3, 0.0 hours): 0 ng/mL
concentration at 0.5 hours ([2]; Dog 3, 0.5 hours): 27.1 ng/mL
concentration at 1 hours ([2]; Dog 3, 1.0 hours): 93.9 ng/mL
concentration at 2 hours ([2]; Dog 3, 2.0 hours): 215 ng/mL
concentration at 3 hours ([2]; Dog 3, 3.0 hours): 301 ng/mL
concentration at 4 h ([2]; Dog 3, 4.0 hours): 319 ng/mL
concentration at 6 h ([2]; Dog 3, 6.0 hours): 359 ng/mL
concentration at 8 h ([2]; Dog 3, 8.0 hours): 404 ng/mL
concentration at 12 h ([2]; Dog 3, 12.0 hours): 559 ng/mL
concentration at 504 h ([2]; Dog 3, 504.0 hours): 33.1 ng/mL
concentration at 576 h ([2]; Dog 3, 576.0 hours): 16.6 ng/mL
concentration at 672 hours ([2]; Dog 3, 672.0 hours): 11.6 ng/mL
concentration at 840 hours ([2]; Dog 3, 840.0 hours): 6.5 ng/mL
concentration at 1008 hours ([2]; Dog 3, 1008.0 hours): 5.6 ng/mL
concentration at 1176 hours ([2]; Dog 3, 1176.0 hours): 3 ng/mL
concentration at 1344 hours ([2]; Dog 3, 1344.0 hours): 2.4 ng/mL
Compound: Cc1cnc(NC(=O)C2=C(O)c3ccccc3S(=O)(=O)N2C)s1 [meloxicam]
Solubility in methanol ([1]; methanol): very slightly soluble
Solubility in strong acids and bases ([1]; strong acids and bases, compared with water): higher solubility
Solubility in water [1]: practically insoluble in water
Weight at necropsy [3, 5]: 27.3 g
Weight gain [3, 5]: -0.7 g
Weight at necropsy [3, 6]: 29.0 g
Weight gain [3, 6]: 0.0 g
Weight at necropsy [3, 7]: 32.7 g
Weight gain [3, 7]: 1.6 g

Compound: NS(=O)(=O)c1ccc(-n2nc(C(F)(F)F)cc2-c2ccc(F)cc2)cc1 [Mavacoxib]
Time a therapeutic level is maintained [4]: one month

Reference: US10548843B2, “Sustained-release silica composite depot non-steroidal anti-inflammatory drug delivery” (Solani Therapeutics, priority 2015, dated 2020)
